We go through three molecules from paper PMC6437697 (Journal of Medicinal Chemistry, 2019).

The target in one data set is T1, STK16 (Homo sapiens, UniProt O75716).
T1 construct: purchased Eurofins DiscoverX KINOMEscan
Put plainly: KINOMEscan. The data set is classed as binding. As to conditions: read-out: % control activity remaining.

Another data set concerns the target T2, DDR2 (Homo sapiens, UniProt Q16832).
T2 construct: purchased Eurofins DiscoverX KINOMEscan
T2 sequence (Q16832 22-855): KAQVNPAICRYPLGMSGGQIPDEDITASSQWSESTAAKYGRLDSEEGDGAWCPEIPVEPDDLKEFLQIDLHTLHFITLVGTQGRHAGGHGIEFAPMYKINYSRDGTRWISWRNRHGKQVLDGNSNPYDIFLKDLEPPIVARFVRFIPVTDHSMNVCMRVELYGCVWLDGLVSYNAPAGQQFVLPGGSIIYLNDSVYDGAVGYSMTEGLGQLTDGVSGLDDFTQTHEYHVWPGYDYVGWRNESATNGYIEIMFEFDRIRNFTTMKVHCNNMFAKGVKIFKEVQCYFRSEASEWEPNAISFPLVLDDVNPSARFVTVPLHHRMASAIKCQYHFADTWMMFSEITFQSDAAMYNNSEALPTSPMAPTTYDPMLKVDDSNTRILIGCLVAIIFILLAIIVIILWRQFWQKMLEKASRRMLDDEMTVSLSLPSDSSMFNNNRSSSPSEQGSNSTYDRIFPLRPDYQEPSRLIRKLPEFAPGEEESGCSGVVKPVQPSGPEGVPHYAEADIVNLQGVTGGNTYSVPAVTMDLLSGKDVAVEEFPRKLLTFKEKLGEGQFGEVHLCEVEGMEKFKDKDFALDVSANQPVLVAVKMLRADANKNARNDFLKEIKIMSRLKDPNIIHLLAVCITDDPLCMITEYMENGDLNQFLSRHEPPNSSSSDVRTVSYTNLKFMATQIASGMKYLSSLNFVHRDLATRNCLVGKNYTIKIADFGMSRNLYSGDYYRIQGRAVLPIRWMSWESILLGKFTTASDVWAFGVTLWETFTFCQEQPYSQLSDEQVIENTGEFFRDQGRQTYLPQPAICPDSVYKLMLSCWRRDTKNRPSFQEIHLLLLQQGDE
Put plainly: KINOMEscan. The data set is classed as binding. As to conditions: read-out: % control activity remaining.

The target in a further data set is T3, EGFR(L858R,T790M) (Homo sapiens, UniProt P00533, L858R/T790M).
T3 construct: purchased Eurofins DiscoverX KINOMEscan
T3 sequence (P00533 25-1210 T790M/L858R limits assumed): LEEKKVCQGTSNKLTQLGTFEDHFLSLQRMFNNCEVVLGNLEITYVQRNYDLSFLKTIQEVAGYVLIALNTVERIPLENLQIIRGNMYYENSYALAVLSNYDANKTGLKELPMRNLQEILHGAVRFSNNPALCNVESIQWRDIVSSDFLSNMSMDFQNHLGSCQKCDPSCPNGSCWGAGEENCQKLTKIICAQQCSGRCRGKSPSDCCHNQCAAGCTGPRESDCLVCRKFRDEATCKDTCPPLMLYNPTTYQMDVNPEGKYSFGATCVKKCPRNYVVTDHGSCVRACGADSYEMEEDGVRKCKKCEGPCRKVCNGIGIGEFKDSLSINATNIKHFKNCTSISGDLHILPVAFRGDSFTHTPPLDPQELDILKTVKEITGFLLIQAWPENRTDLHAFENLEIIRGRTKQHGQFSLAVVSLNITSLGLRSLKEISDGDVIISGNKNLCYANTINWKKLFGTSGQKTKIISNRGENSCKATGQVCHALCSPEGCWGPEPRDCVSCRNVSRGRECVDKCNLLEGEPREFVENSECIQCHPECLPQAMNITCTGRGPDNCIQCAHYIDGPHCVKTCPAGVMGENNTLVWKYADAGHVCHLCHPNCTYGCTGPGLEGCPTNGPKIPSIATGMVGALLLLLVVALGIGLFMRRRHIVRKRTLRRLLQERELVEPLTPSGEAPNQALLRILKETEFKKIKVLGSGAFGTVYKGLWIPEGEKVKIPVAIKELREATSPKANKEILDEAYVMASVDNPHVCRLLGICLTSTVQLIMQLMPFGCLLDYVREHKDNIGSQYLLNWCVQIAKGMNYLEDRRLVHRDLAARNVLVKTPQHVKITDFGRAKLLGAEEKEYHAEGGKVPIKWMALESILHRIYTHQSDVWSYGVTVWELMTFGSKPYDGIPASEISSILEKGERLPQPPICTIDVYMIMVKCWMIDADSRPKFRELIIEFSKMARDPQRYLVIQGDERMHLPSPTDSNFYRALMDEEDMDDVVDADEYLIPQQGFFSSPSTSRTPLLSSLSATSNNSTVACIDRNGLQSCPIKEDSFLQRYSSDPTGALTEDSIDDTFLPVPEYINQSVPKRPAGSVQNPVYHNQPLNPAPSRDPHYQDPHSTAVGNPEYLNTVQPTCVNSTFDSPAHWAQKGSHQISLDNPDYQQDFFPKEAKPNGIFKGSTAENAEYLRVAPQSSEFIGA
The data set is described as follows: KINOMEscan. Particulars: read-out: % control activity remaining. It is filed as binding.

The target in another data set is T4, PIM1 (Homo sapiens, UniProt P11309).
T4 construct: purchased Eurofins DiscoverX KINOMEscan
T4 sequence (P11309 whole entry): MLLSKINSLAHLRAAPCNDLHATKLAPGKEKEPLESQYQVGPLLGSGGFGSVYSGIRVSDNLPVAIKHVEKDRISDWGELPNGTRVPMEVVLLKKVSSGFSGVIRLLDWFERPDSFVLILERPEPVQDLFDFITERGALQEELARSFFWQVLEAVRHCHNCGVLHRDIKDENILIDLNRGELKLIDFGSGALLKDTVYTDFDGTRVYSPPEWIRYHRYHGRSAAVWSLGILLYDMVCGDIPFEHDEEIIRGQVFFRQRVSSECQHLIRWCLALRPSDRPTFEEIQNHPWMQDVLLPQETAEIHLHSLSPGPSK
The data set is described as follows: KINOMEscan. The data set is classed as binding. As to conditions: read-out: % control activity remaining.

The next data set deals with T5, DCAMKL3 (Homo sapiens, UniProt Q9C098).
T5 construct: purchased Eurofins DiscoverX KINOMEscan
T5 sequence (Q9C098 1-648): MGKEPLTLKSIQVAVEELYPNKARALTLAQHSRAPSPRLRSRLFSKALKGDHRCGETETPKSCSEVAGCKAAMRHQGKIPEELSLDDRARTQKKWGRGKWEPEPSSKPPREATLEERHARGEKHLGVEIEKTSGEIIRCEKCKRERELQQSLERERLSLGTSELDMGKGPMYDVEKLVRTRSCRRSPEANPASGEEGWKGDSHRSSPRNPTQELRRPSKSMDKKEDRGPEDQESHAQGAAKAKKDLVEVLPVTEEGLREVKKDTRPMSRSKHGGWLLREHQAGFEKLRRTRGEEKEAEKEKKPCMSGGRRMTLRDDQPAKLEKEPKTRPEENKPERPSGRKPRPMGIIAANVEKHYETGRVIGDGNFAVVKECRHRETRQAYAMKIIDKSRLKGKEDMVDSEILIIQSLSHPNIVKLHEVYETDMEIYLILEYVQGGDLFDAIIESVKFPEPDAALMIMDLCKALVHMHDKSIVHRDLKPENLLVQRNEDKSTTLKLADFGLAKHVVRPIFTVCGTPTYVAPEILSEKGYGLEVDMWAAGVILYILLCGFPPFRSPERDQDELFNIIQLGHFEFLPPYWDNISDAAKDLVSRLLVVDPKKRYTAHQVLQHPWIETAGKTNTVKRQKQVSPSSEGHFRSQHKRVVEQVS
The data set is described as follows: KINOMEscan. The data set is classed as binding. Particulars: read-out: % control activity remaining.

A further data set is described as follows: in vitro. As to conditions: human.
The target of a further data set is T6, MEK6 (Homo sapiens, UniProt P52564).
T6 construct: purchased Eurofins DiscoverX KINOMEscan
T6 sequence (P52564 whole entry): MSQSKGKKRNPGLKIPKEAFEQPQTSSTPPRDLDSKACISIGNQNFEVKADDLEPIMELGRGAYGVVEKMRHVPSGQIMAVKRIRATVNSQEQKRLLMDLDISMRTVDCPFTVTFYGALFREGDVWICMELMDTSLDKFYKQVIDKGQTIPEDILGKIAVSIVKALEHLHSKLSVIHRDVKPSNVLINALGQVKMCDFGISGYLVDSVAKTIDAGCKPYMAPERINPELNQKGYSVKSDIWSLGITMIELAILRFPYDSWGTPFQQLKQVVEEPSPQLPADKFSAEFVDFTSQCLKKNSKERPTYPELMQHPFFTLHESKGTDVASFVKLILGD
Put plainly: KINOMEscan. The data set is classed as binding. Particulars: read-out: % control activity remaining.

The next data set relates to FLT3(ITD,D835Y). The data set is described as follows: KINOMEscan. The data set is classed as binding, human. As to conditions: 1000 nM.
A further data set addresses T7, WNK2 (Homo sapiens, UniProt Q9Y3S1).
T7 construct: purchased Eurofins DiscoverX KINOMEscan
Put plainly: KINOMEscan. Particulars: read-out: % control activity remaining. It is filed as binding.

The nature of data set [1]: Aqueous buffer solubility (KSol).
The next data set concerns the target T8, VPS34 (Homo sapiens, UniProt Q8NEB9).
T8 construct: purchased Eurofins DiscoverX KINOMEscan
The data set is described as follows: KINOMEscan. It is filed as binding. As to conditions: read-out: % control activity remaining.

The target in the next data set is T9, GRK2 (Homo sapiens, UniProt P25098).
T9 construct: purchased Eurofins DiscoverX KINOMEscan
T9 sequence (P25098 whole entry): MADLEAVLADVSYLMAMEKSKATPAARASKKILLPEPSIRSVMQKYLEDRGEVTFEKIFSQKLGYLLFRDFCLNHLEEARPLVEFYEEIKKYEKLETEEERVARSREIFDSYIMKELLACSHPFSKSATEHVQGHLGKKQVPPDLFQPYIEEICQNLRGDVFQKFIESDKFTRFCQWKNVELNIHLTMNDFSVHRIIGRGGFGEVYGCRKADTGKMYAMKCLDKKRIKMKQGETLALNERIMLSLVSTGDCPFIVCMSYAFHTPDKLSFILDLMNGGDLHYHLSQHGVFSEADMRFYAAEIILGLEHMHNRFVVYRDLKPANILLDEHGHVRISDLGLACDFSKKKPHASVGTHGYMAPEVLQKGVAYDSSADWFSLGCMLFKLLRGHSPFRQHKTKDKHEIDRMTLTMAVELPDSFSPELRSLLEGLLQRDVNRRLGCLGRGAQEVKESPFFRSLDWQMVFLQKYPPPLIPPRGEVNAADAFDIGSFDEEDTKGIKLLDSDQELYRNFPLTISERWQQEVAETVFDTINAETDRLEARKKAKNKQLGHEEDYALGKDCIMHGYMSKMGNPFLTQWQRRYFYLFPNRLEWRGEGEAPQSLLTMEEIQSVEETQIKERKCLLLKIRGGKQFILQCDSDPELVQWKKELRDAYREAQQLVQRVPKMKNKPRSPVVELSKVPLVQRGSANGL
Put plainly: KINOMEscan. The data set is classed as binding. Particulars: read-out: % control activity remaining.

The target of the next data set is T10, CDK4 (Homo sapiens, UniProt P11802).
T10 construct: purchased Eurofins DiscoverX KINOMEscan
T10 sequence (P11802 whole entry): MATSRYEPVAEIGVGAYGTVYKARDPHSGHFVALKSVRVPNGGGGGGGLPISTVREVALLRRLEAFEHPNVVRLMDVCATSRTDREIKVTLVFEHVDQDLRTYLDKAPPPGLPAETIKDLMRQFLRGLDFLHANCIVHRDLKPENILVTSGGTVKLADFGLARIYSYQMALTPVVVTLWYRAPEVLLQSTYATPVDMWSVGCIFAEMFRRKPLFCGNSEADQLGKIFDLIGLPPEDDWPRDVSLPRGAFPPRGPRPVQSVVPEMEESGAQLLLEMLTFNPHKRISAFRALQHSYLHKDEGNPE
Put plainly: KINOMEscan. The data set is classed as binding. As to conditions: read-out: % control activity remaining.

The next data set has as its target T11, CAMK1B (Homo sapiens, UniProt Q6P2M8).
T11 construct: purchased Eurofins DiscoverX KINOMEscan
Put plainly: KINOMEscan. The data set is classed as binding. Particulars: read-out: % control activity remaining.

The subject of the next data set is FLT3(ITD,D835V). The data set is described as follows: KINOMEscan. It is filed as binding, human. As to conditions: 1000 nM.
The target in another data set is T12, TSSK3 (Homo sapiens, UniProt Q96PN8).
T12 construct: purchased Eurofins DiscoverX KINOMEscan
T12 sequence (Q96PN8 whole entry): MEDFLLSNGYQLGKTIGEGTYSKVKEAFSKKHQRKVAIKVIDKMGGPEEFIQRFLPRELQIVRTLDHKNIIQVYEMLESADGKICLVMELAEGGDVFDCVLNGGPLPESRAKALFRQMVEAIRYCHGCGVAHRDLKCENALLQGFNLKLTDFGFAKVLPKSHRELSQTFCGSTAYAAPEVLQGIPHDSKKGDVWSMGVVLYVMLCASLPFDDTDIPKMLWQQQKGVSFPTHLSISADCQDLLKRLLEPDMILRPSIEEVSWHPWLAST
The data set is described as follows: KINOMEscan. Particulars: read-out: % control activity remaining. The data set is classed as binding.

A further data set concerns the target T13, WNK4 (Homo sapiens, UniProt Q96J92).
T13 construct: purchased Eurofins DiscoverX KINOMEscan
The data set is described as follows: KINOMEscan. The data set is classed as binding. As to conditions: read-out: % control activity remaining.

The target in the next data set is T14, VRK2 (Homo sapiens, UniProt Q86Y07).
T14 construct: purchased Eurofins DiscoverX KINOMEscan
The data set is described as follows: KINOMEscan. The data set is classed as binding. As to conditions: read-out: % control activity remaining.

Data set [2] relates to GFP-IRE1α oligomerization in HEK293 cells. Put plainly: GFP-IRE1α foci (oligomerization) assay in HEK293 cells. It is filed as cell-based, human. As to conditions: absence of tunicamycin.
For data set [3], the system named is IRE1α-dependent splicing of XBP1u-luciferase mRNA reporter in HEK293 cells. The data set is described as follows: XBP1 luciferase fusion mRNA splicing reporter in HEK293 cells. It is filed as cell-based, human. As to conditions: Homo sapiens, HEK293, read-out: tunicamycin- and thapsigargin-induced splicing of XBP1 luciferase fusion mRNA IC50.
The target of a further data set is T15, FLT3(D835V) (Homo sapiens, UniProt P36888, D835V).
T15 construct: purchased Eurofins DiscoverX KINOMEscan
The data set is described as follows: KINOMEscan. The data set is classed as binding. As to conditions: read-out: % control activity remaining.

In the next data set the target is T16, GRK3 (Homo sapiens, UniProt P35626).
T16 construct: purchased Eurofins DiscoverX KINOMEscan
Put plainly: KINOMEscan. It is filed as binding. Particulars: read-out: % control activity remaining.

A short description of data set [4]: Measured lipophilicity Log D7.4. Particulars: pH 7.4.
In the next data set the target is T17, PKFYVE (Homo sapiens, UniProt Q9Y2I7).
T17 construct: purchased Eurofins DiscoverX KINOMEscan
Put plainly: KINOMEscan. The data set is classed as binding. As to conditions: read-out: % control activity remaining.

SMILES strings stand for the structures. pEC50, pIC50: −log10 of the molar value. In brackets after ≈: the same amount, converted by molar mass.

T1 sequence (O75716 whole entry): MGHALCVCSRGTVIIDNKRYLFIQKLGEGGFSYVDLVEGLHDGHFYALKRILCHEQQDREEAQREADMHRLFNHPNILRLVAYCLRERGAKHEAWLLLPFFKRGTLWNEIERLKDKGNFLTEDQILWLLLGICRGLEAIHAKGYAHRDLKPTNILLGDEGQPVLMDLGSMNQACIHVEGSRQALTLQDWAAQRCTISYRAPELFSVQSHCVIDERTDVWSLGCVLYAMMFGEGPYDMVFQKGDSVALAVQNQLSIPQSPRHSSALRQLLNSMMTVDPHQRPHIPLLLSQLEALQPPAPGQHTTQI
T11 sequence (Q6P2M8 whole entry): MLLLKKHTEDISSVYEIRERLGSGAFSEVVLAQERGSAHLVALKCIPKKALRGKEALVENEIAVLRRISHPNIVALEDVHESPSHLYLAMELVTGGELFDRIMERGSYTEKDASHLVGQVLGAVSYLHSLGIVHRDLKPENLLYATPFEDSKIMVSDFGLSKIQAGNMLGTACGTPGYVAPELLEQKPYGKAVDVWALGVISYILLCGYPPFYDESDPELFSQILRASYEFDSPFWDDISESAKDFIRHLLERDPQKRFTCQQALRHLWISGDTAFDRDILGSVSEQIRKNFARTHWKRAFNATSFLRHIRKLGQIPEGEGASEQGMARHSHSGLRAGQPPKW
T13 sequence (Q96J92 whole entry): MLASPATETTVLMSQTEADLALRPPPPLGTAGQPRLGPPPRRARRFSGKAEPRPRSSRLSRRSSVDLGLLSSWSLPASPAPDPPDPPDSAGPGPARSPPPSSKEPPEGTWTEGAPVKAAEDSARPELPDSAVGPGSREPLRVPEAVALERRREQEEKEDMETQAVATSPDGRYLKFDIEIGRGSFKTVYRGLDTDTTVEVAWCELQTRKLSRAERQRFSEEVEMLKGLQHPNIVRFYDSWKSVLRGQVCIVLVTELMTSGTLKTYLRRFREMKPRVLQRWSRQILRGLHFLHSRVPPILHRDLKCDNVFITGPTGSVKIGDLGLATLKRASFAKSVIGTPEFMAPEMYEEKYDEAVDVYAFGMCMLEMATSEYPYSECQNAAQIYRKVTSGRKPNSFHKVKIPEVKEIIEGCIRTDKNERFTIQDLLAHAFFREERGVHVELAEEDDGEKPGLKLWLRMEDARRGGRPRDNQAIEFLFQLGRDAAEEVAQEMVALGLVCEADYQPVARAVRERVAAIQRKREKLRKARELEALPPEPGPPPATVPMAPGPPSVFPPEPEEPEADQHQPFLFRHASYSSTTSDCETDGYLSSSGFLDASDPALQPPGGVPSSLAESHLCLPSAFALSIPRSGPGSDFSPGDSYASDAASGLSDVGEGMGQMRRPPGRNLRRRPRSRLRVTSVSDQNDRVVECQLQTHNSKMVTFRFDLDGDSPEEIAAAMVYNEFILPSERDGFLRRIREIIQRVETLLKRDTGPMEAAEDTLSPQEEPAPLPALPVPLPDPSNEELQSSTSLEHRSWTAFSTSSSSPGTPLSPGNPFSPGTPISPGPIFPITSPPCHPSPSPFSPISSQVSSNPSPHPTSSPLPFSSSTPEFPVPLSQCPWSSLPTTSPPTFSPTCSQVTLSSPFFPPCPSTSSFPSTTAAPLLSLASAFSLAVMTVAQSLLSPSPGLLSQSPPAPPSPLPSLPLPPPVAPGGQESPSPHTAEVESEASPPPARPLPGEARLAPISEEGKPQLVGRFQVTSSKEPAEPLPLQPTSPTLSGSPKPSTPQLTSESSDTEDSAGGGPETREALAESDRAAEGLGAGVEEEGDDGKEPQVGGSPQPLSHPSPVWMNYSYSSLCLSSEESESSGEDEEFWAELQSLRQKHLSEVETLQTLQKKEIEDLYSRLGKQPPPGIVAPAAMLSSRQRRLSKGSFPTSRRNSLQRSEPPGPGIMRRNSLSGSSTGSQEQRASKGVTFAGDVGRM

As to `Clc1cc(NCC2CC2)c2ncc(-c3ccc4[nH]ncc4c3)n2n1` [compound 2, 6-Chloro-N-(cyclopropylmethyl)-3-(1H-indazol-5-yl)imidazo[1,2-b]pyridazin-8-amine], the remaining binding at 1 µM at STK16 was determined as 100%; on DDR2 it was 86%; at EGFR(L858R,T790M), 82%; at PIM1, 100%; at DCAMKL3, 100%; at MEK6, 98%. In addition, the negative logarithm of the EC50 (pEC50) – broadly, the negative decadic logarithm of the EC50, by convention in mol/L – in “in vitro” is less than 4.31.

Turning to `O=C(CN1CCOCC1)N[C@H]1CC[C@H](Nc2cc(Cl)nn3c(-c4ccc5[nH]ncc5c4)cnc23)CC1` [compound 26], the “% control activity remaining” value is reported as 25% in the data set with FLT3(ITD,D835Y) and 0.7% in the data set on FLT3(ITD,D835V). The remaining binding at 1 µM is 34% at WNK2; 83% at STK16; 98% at DDR2; 94% at VPS34; 90% on EGFR(L858R,T790M); 68% on PIM1. For the same molecule, the remaining binding at 1 µM at DCAMKL3 came to 100%; on GRK2 it was 84%; on CDK4, 100%; at CAMK1B it was 75%; on TSSK3 it was 100%; at WNK4, 100%. Further, the remaining binding at 1 µM on VRK2 is 98%; at MEK6, 93%; on FLT3(D835V), 0%; at GRK3, 74%; on PKFYVE it was 87%. Further, the solubility (as a rule, how much of the substance goes into solution per volume) in data set [1] worked out at 80 µM (≈ 40.7 µg/mL). Also, the negative logarithm of the EC50 (pEC50) in “in vitro” is less than 4.31. Also, in data set [2], the “stimulation of GFP-IRE1α foci formation by compound on its own” value is on record as “No stimulation”. The negative logarithm of the IC50 (pIC50) (commonly the negative decadic logarithm of the IC50, by convention in mol/L) in data set [3] is 5.79 to 6.17. In addition, in data set [4], the logD – broadly, the decadic logarithm of the distribution of all forms, ionised or not, between an organic phase and buffer at a given pH – was 1.8.

In the case of `CN1CCC(CNc2cc(Cl)nn3c(-c4cc5nc(Nc6ccccc6)[nH]c5cc4F)cnc23)CC1` [compound 31, 6-Chloro-3-(6-fluoro-2-(phenylamino)-1H-benzo[d]imidazol-5-yl)-N-((1-methylpiperidin-4-yl)methyl)imidazo[1,2-b]pyridazin-8-amine], the “% control activity remaining” value came out at 77% in the data set with FLT3(ITD,D835Y) and 76% in the data set on FLT3(ITD,D835V). The remaining binding at 1 µM was 100% on WNK2; 96% at STK16; 100% on DDR2; 97% at VPS34; 100% on EGFR(L858R,T790M); 95% on PIM1. For the same molecule, the remaining binding at 1 µM at DCAMKL3 came to 100%; at GRK2, 100%; on CDK4, 100%; on CAMK1B it was 100%; on TSSK3 it was 91%; at WNK4 it was 83%. Further, the remaining binding at 1 µM on VRK2 was 82%; on FLT3(D835V) it was 69%; at GRK3, 91%; on PKFYVE, 26%. Besides, the concentration in solution in [1] (solubility) was 38 µM (≈ 19.2 µg/mL). In addition, the “stimulation of GFP-IRE1α foci formation by compound on its own” value in [2] is on record as “No stimulation”. Moreover, the pIC50 in [3] was 5.79 to 6.17. Further, the logD in data set [4] was found to be 3.7.
